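1) Cells in 96-well plates. 2) Compound, 48 h, 5 concentrations. 3) Linear interpolation between surrounding doses. 4) Unreached endpoint = highest concentration. TGI denotes the concentration required for complete inhibition of growth.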
What was measured:
Assay in all cases: NCI tumour cell line growth inhibition, 48 h
SK-OV-3 ovarian = test system: SK-OV-3 ovarian
M14 melanoma = test system: M14 melanoma
NCI-H23 lung = test system: NCI-H23 lung
MOLT-4 leukemia = test system: MOLT-4 leukemia
K-562 leukemia = test system: K-562 leukemia
NCI-H460 lung = test system: NCI-H460 lung
MCF7 breast = test system: MCF7 breast
U251 CNS = test system: U251 CNS
SNB-19 CNS = test system: SNB-19 CNS
KM12 colon = test system: KM12 colon
LOX IMVI melanoma = test system: LOX IMVI melanoma
A549 NSCLC = test system: A549 NSCLC
SW-620 colon = test system: SW-620 colon
SK-MEL-5 melanoma = test system: SK-MEL-5 melanoma
HT29 colon = test system: HT29 colon
MALME-3M melanoma = test system: MALME-3M melanoma
BT-549 breast = test system: BT-549 breast
SF-539 CNS = test system: SF-539 CNS
SK-MEL-2 melanoma = test system: SK-MEL-2 melanoma

| Compound | TGI (SK-OV-3 ovarian) [µM] | TGI (M14 melanoma) [µM] | TGI (NCI-H23 lung) [µM] | TGI (MOLT-4 leukemia) [µM] | TGI (K-562 leukemia) [µM] | TGI (NCI-H460 lung) [µM] | TGI (MCF7 breast) [µM] | TGI (U251 CNS) [µM] | TGI (SNB-19 CNS) [µM] | TGI (KM12 colon) [µM] | TGI (LOX IMVI melanoma) [µM] | TGI (A549 NSCLC) [µM] | TGI (SW-620 colon) [µM] | TGI (SK-MEL-5 melanoma) [µM] | TGI (HT29 colon) [µM] | TGI (MALME-3M melanoma) [µM] | TGI (BT-549 breast) [µM] | TGI (SF-539 CNS) [µM] | TGI (SK-MEL-2 melanoma) [µM] |
| --- | --- | --- | --- | --- | --- | --- | --- | --- | --- | --- | --- | --- | --- | --- | --- | --- | --- | --- | --- |
| COc1ccccc1CC1(O)OC(=O)c2ccccc21 (stereo not drawn) | > 100 | > 100 | > 100 | > 100 | > 100 | > 100 | > 100 | > 100 | > 100 | > 100 | > 100 | > 100 | > 100 | > 100 | > 100 | > 100 | > 100 | > 100 | > 100 |
| Oc1cc(F)cc2cccnc12 | > 100 | 22.1 | 18.2 | 1.97 | 1.15 | 29.3 | > 39.7 | > 100 | > 100 | > 100 | 29.1 | > 50.8 | > 100 | 13.4 | > 36.7 | > 100 | 70.2 | 30 | > 100 |

Source: PubChem BioAssay (NCI)
